Laboratory results as given in article PMC8379256, “A xanthene derivative, DS20060511, attenuates glucose intolerance by inducing skeletal muscle-specific GLUT4 translocation in mice” (Communications Biology, 2021).
Values joined by “and” are separate entries in the source; they are usually repeats but may differ in a detail not shown here. Identical values can stand only once.

Test system: L6-GLUT4myc myotubes
Test: GLUT4 translocation: cell surface GLUT4myc by anti-Myc antibody assay in L6-GLUT4myc myotubes
Type: cell-based, rat
Design: key to GLUT4 translocation: fold of vehicle-treated group
Description: The L6-GLUT4myc rat myoblast cell line was obtained from Dr. Amira Klip and Dr. Philip Bilan, through a license granted by The Hospital for Sick Children, 555 University Avenue, Toronto, Ontario, Canada M5G 1 × 8; or purchased from Kerafast, Boston, MA (ESK202)[43]. The 3T3-L1-GLUT4myc fibroblast cell line was provided by Dr. Tomoyuki Yuasa, Tokushima University[44]. L6-GLUT4myc myoblasts were grown in MEMα (32571036, Thermo Fisher Scientific, Waltham, MA) supplemented with 10% FBS and 1% antibiotics, and then induced to differentiate into myotubes in MEMα supplemented with 2% FBS and 1% antibiotics for 5–8 days. 3T3-L1-GLUT4myc fibroblasts were induced to differentiate into adipocytes as described previously,[45] with minor modifications. Briefly, cells were grown to confluence in growth medium: DMEM (10569010, Thermo Fisher Scientific) supplemented with 10% FBS and 1% antibiotics, and then induced to differentiate into adipocytes in growth medium supplemented with 1 μM dexamethasone, 2 μM rosiglitazone, 0.5 mM isobutylmethylxanthine, and 10 μg mL^−1 insulin for 2 days. The adipocytes were then cultured in growth medium supplemented with 10 μg mL^−1 insulin for a few days before being used for the experiments.
Cell surface GLUT4 levels in the L6-GLUT4myc myoblasts and myotubes were determined by antibody binding assay as described previously[43],[44], with minor modifications. Briefly, cells in a 96- or 24-well plate were starved in serum-free MEMα (0.1% BSA and 1% antibiotics) for 3 h and then treated with the indicated concentrations of DS20060511 and/or insulin for 30 min at 37 °C. After fixation with 4% paraformaldehyde, the cells were incubated with 1% glycine in PBS at 4 °C for 10 min, and blocked with 10% normal goat serum and 3% BSA in PBS at 4 °C for 30 min. The cells were then incubated with anti-c-Myc antibody (sc-40, 1:500) diluted with blocking buffer at 4 °C for 1 h, washed with cold PBS(+), incubated with HRP-conjugated anti-mouse IgG diluted with blocking buffer at 4 °C for 30 min, and then washed again. SuperSignal ELISA Pico Chemiluminescent Substrate (Thermo Fisher Scientific) was added and the luminescent signal was measured. To investigate GLUT4 translocation in the 3T3-L1-GLUT4myc adipocytes, the cells were prepared in a 24-well plate, and anti-c-Myc antibody (sc-789, 1:1000), HRP-conjugated anti-rabbit IgG and SIGMAFAST OPD regent (Sigma–Aldrich) were added for optical detection of the cell surface GLUT4myc levels. The GLUT4 translocation activity was normalized to that in the vehicle-treated group.

In the case of C/C1=C/C(=O)O[C@@H]2C[C@@H](CC[C@H](C)/C=C\CC1)O[C@@](O)([C@@H]1CSC(=O)N1)C2 [Latrunculin B, reference compound], the “effect on GLUT4 translocation induced by insulin” value (100 nM insulin, Latrunculin B 10-200 nM, Fig. 4d) is reported as “suppressed GLUT4 translocation induced by insulin”, the “effect on GLUT4 translocation induced by DS20060511” value (30 μM DS20060511, Latrunculin B 10-200 nM, Fig. 4d) is reported as “not that induced by DS20060511 treatment” and the GLUT4 translocation (Control (no insulin or DS20060511), Latrunculin B 10 nM) is reported as 1.16 and 0.86 and 0.98. For the same compound, the GLUT4 translocation (Control, Latrunculin B 30 nM) was 0.98 and 1.11 and 0.90, the GLUT4 translocation (Control, Latrunculin B 100 nM) was 1.11 and 0.92 and 0.97 and the GLUT4 translocation (Control, Latrunculin B 200 nM) was 1.06 and 1.00 and 0.94.
